What was measured:
[1] = system: cytokines (inflammatory profile); test: Cytokine arrays in aneurysm-induced cerebral vasculature; type: in vivo, mouse; conditions: aneurysmal mice, 2 versus 3 weeks; FIG. 5
Description: (§1) Mouse Intracranial Aneurysm Model. Murine intracranial aneurysms were created in female 8-12 week-old C57BL/6 mice (Charles River Laboratories, Wilmington, Mass.) using a method described previously (Hosaka et al., Journal of neurointerventional surgery. 2014; 6:474-9). Briefly, the left common carotid artery and the right renal artery were ligated to induce hypertension. One week later, an Alzet micro-osmotic pump model 1004 (DURECT Corp, Cupertino, Calif.) was implanted subdermally to deliver Angiotensin II (Bachem AG, Switzerland) at 1000 ng/kg/min. 10 μL of 0.8% porcine elastase (Worthington Biochemical Corp, Lakewood, N.J.) in normal saline was injected into the right basal cistern using stereotactic coordinates: 1.2 mm rostral of bregma, 0.7 mm lateral of midline and 5.3 mm ventral of the dorsal aspect of the skull. The animals were fed a hypertensive diet with 8% NaCl and 0.12% BAPN (TEKLAD). Clopidogrel was administered at 1 mg/kg in normal saline via intraperitoneal injection every two days. Reparixin was administered at 10 mg/kg in normal saline via intraperitoneal injection every two days. PBS-treated animals received 10 μL injection of phosphate buffered saline subcutaneously every two days. […] In addition, cytokines were analyzed in human cerebral aneurysm, superficial temporal artery, and peripheral intravenous blood specimens that were collected at the time of surgery.

[2] = system: murine intracranial aneurysms; test: Mouse intracranial aneurysm model (aneurysm formation); type: in vivo, mouse (C57BL/6)
Description: as §1, with “Each Circle of Willis was examined by a blinded observer” for “In addition, cytokines were analyzed in human cerebral aneurysm, superficial temporal artery,”, “aneurysm formation was recorded (yes/no). […]” for “peripheral intravenous blood specimens that were collected at the time of surgery.”

In the case of `CC(C)Cc1ccc([C@@H](C)C(=O)NS(C)(=O)=O)cc1` [reparixin], the “attenuation of inflammatory profile (temporal dynamics of 96 cytokines)” value [1] is reported as “robust anti-inflammatory effects” and the mice developing aneurysms ([2]; 10 mg/kg reparixin, PBS:DMSO treated control mice 59%, p=0.0163, FIG. 3B) is reported as 14%.

For `COC(=O)[C@H](c1ccccc1Cl)N1CCc2sccc2C1` [clopidogrel], the “attenuation of inflammatory profile (temporal dynamics of 96 cytokines)” value [1] was “moderate response” and the mice developing aneurysms ([2]; 1 mg/kg clopidogrel, controls 59%, p<0.001, FIG. 3A) was 0%.

Source: patent US20220054463A1, “METHODS OF TREATING ANEURYSMS” (University of Pittsburgh-of the Commonwealth System of …, priority 2020, published 2022)
